Data reported in publication PMC7190413 (Journal of cystic fibrosis : official journal of the …, 2019).
Where two headings read alike, the source gives them in different places.

Experiments:
G551D-CFTR [1] = target: T1, G551D-CFTR (Homo sapiens, UniProt P13569, G551D); test: Fractional PM activity; assay type: cell-based; details: CFBE; forskolin-stimulated, mono-therapy or dual potentiator treatment; Fig. 5d
G551D-CFTR [2] = target: T1, G551D-CFTR; test: Short-circuit current; assay type: cell-based; details: for forskolin-activated Isc relative to that of WT-CFTR: forskolin 20 μM
S1251N-CFTR = test: Fractional PM activity; assay type: cell-based, human; details: CFBE; forskolin plus single potentiator; Fig. 5f
G551D-CFTR [3] = target: T1, G551D-CFTR; test: Single-channel activity in reconstituted planar phospholipid bilayer; assay type: biochemical; details: PKA-activated, 28–30°C
G551D-CFTR [4] = target: T1, G551D-CFTR; test: Short-circuit current; assay type: cell-based; details: CFBE; forskolin 20 μM then acute VX-770 10 μM; Fig. 5a,b

T1 sequence (P13569 whole entry G551D): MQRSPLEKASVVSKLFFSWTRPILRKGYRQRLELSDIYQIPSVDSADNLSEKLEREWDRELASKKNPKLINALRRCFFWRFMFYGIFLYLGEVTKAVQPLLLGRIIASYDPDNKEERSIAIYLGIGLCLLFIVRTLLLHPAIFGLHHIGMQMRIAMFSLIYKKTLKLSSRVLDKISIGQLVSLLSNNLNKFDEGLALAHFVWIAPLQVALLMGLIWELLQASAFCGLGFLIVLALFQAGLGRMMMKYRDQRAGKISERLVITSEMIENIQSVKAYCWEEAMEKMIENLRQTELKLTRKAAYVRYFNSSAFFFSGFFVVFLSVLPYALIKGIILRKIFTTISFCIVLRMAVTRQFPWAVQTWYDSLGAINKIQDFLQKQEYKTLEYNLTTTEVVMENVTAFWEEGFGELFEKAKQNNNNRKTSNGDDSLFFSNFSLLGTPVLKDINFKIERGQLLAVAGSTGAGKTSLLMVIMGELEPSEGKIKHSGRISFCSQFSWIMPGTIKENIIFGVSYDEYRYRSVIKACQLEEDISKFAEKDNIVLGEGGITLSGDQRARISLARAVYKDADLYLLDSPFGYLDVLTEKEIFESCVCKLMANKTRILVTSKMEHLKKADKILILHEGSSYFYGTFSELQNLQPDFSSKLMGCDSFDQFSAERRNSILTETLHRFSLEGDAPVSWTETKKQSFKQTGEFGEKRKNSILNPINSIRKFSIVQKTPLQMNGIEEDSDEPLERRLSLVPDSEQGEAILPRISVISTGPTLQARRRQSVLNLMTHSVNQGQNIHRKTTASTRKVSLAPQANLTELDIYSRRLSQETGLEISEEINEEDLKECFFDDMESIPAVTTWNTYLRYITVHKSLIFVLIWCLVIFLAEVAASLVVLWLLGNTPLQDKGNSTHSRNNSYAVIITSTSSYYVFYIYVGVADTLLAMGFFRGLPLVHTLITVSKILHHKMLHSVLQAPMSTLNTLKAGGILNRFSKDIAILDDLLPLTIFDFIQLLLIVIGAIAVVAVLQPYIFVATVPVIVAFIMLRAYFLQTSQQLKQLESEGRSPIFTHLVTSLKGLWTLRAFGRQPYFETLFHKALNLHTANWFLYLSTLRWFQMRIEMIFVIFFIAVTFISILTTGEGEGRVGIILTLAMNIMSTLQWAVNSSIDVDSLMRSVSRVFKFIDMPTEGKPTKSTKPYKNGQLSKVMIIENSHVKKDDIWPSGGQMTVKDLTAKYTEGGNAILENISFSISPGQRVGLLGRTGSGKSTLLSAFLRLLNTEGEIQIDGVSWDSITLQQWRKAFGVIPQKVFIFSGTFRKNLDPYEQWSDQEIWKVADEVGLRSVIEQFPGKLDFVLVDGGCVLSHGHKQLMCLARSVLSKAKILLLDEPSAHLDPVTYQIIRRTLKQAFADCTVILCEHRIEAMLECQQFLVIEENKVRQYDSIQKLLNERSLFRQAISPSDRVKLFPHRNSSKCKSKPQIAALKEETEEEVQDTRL

SMILES	fractional PM activity of G551D, of the WT (G551D-CFTR [1])	lower potency in comparison to VX-770 (G551D-CFTR [2]; HNE, G551D-CFTR, Isc EC50)	EC50 (G551D-CFTR [2]; read-out: EC50 for G551D-CFTR potentiation, HNE, Isc, Supplementary Fig. 6e,f)	fractional PM activity of S1251N after single potentiator therapy, of WT (S1251N-CFTR)	EC50 (G551D-CFTR [2])	forskolin-activated Isc relative to that of WT-CFTR (G551D-CFTR [2]; HNE with G551D on both alleles)	forskolin-activated Isc relative to that of WT-CFTR (G551D-CFTR [2]; HNE with one copy of G551D)	open probability (Po) of phosphorylated G551D-CFTR (G551D-CFTR [3]; 3 μM VX-770)	G551D-CFTR Isc, of WT-function (G551D-CFTR [4])	open probability (Po) of phosphorylated G551D-CFTR upon addition of apigenin (G551D-CFTR [3]; 50 μM apigenin in the presence of 3 μM VX-770)
CC1(C)Cc2c(sc(NC(=O)c3ccn[nH]3)c2C(N)=O)C(C)(C)O1 [ABBV-974]	7%	7 fold	~300 nM	~ 80%	–	–	–	–	–	–
CC(C)(C)c1cc(C(C)(C)C)c(NC(=O)c2c[nH]c3ccccc3c2=O)cc1O [VX-770, ivacaftor]	6%	–	–	~ 80%	~40 nM	~ 50%	~ 25%	~ 0.08	~ 6%	–
O=c1cc(-c2ccc(O)cc2)oc2cc(O)cc(O)c12 [apigenin]	–	–	–	–	–	–	–	–	–	0.14
